How the values were obtained:
[1] = target: PvPI4Kβ (Plasmodium vivax, UniProt A5KB26); parameters: method as in PMID 33590753, PMID 28446690, PMID 30249687; conditions: same assay; cited from earlier work
[2] = test system: Pf3D7 strain; conditions: cited from earlier work
[3] = test system: P. berghei; parameters: method as in earlier work; conditions: 4 × 30 mg/kg; cited from earlier work
[4] = target: T1, HsMAP4K4 (Homo sapiens, UniProt O95819); assay: HsMAP4K4 ADP-Glo kinase assay; type: biochemical; conditions: reference compound, 10 µM ATP
T1 construct: purchased Reaction Biology

[5] = target: T2, HsMINK1 (Homo sapiens, UniProt Q8N4C8); assay: HsMINK1 ADP-Glo kinase assay; type: biochemical; conditions: reference compound, 10 µM ATP
T2 construct: purchased Reaction Biology
T2 sequence (Q8N4C8 whole entry): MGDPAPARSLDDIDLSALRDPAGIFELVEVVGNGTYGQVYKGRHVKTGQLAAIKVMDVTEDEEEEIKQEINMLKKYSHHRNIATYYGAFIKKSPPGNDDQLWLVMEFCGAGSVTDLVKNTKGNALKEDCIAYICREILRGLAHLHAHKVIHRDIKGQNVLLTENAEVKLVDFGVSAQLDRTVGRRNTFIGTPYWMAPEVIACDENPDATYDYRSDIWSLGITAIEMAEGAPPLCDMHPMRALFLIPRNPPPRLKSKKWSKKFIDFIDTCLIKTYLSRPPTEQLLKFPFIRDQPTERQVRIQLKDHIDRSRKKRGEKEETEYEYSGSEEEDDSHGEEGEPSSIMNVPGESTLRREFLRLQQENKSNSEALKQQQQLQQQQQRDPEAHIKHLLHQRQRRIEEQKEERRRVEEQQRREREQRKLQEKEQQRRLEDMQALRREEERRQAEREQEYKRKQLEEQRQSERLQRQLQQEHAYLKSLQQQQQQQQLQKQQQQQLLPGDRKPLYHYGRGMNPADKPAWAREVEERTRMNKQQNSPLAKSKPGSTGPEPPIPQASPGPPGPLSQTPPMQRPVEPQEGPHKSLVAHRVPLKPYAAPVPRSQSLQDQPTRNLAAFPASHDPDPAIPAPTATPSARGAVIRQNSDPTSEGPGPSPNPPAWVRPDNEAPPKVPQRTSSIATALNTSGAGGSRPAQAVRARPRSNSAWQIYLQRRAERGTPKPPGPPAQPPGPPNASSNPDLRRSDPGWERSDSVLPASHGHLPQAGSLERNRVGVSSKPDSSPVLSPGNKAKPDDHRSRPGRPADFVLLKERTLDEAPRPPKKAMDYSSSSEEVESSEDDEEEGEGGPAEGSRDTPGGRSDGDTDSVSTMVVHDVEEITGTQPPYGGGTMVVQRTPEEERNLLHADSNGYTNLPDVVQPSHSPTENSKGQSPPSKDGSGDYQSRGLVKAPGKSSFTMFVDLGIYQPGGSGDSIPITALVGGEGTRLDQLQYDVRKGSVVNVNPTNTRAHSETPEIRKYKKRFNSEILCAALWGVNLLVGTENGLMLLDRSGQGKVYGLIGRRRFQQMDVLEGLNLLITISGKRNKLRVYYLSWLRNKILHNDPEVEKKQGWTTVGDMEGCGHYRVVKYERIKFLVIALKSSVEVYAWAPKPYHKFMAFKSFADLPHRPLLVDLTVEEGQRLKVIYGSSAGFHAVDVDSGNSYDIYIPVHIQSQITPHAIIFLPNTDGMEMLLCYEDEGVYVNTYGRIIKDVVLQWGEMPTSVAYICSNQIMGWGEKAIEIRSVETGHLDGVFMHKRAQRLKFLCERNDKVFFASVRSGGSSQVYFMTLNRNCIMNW

Sequence of PvPI4Kβ (A5KB26 entry or part of it): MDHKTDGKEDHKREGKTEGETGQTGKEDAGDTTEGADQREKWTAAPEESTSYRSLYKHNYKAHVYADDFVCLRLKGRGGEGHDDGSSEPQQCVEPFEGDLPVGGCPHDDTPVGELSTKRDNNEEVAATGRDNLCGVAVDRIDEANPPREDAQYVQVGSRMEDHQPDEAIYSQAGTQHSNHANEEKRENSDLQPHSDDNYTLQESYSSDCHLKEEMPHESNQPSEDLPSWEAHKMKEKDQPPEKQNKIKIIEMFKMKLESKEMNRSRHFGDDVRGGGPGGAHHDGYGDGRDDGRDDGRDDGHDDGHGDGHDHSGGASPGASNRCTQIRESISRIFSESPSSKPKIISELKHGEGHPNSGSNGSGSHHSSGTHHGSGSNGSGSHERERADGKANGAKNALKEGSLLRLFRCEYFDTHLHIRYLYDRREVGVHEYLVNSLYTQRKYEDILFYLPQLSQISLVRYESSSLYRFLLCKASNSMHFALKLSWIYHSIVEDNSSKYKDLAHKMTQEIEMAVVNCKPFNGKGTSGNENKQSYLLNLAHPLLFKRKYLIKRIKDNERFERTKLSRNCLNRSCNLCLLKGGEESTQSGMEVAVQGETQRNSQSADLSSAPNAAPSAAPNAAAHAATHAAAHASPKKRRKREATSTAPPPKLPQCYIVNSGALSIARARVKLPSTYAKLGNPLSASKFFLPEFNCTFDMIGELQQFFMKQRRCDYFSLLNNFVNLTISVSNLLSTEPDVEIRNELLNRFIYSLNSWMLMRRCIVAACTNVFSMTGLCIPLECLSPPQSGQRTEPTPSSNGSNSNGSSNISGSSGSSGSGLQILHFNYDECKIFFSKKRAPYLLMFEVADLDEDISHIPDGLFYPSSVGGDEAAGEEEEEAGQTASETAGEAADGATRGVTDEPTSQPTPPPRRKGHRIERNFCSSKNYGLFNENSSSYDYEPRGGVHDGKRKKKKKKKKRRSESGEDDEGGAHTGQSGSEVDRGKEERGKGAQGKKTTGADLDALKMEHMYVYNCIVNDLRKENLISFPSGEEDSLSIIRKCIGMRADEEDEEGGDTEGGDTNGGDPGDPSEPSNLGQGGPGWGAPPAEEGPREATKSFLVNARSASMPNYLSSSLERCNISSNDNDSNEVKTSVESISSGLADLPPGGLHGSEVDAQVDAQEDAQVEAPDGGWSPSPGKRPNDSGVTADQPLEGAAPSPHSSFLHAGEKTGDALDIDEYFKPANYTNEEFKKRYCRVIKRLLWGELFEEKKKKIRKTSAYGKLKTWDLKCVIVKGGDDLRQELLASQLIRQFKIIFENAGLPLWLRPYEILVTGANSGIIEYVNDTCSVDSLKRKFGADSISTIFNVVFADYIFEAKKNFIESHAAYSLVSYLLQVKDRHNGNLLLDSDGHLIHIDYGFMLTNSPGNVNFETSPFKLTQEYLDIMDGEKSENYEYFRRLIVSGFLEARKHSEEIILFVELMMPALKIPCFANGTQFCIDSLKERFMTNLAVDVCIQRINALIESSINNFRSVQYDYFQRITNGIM
T1 sequence (O95819 whole entry): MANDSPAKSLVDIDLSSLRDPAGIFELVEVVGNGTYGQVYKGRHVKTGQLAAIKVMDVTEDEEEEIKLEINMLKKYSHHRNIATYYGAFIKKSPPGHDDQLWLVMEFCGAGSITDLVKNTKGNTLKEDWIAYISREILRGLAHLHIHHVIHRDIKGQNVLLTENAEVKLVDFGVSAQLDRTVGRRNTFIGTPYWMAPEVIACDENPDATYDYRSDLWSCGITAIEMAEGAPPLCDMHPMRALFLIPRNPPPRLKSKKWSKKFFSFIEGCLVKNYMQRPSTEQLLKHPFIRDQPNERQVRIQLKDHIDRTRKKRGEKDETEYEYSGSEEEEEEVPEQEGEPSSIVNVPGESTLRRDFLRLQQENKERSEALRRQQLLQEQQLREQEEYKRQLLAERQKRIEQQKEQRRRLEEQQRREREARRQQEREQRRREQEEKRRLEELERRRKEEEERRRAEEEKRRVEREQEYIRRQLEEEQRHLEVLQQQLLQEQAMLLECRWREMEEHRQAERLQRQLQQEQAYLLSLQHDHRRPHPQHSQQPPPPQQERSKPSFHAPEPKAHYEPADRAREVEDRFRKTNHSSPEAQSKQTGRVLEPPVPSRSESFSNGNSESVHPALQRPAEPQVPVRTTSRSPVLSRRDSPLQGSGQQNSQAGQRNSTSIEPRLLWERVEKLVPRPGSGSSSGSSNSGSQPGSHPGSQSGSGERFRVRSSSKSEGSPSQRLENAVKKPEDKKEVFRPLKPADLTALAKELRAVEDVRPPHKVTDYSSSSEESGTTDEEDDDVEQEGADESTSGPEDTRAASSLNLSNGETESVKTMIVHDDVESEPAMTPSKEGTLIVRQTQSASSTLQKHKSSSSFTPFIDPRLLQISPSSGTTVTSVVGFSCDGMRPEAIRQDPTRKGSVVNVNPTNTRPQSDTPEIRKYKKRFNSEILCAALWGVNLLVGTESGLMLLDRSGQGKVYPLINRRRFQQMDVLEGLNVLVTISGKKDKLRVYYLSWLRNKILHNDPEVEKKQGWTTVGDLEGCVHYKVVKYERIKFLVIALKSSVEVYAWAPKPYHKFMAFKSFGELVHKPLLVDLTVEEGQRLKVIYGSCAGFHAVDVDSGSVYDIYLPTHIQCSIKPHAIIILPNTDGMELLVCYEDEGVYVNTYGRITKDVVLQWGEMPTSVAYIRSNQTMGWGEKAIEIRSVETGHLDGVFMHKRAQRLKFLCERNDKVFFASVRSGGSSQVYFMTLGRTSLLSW

Structure (SMILES) | IC50 [1] | reduction in parasitaemia [3] | further results
Nc1ncc(-c2ccc(C(=O)N3CCNCC3)cc2)nc1-c1ccc(C(F)(F)F)cc1 [UCT943] | < 5 nM |  | logPRR [2]: 2.5
C[C@H]1[C@H](OC(=O)CCC(=O)O)O[C@@H]2O[C@@]3(C)CC[C@H]4[C@H](C)CC[C@@H]1[C@@]24OO3 [artesunate] |  | 99% | 
CCN(CC)CCCC(C)Nc1ccnc2cc(Cl)ccc12 (stereo not shown) [chloroquine] |  | 99.9% | 
CC(C)n1nc(-c2ccc3oc(N)nc3c2)c2c(N)ncnc21 [sapanisertib] | < 5 nM |  | 
CN[C@@H]1C[C@H]2O[C@@](C)([C@@H]1OC)n1c3ccccc3c3c4c(c5c6ccccc6n2c5c31)C(=O)NC4 [staurosporine] |  |  | inhibition HsMAP4K4 [4]: nanomolar inhibition; inhibition HsMINK1 [5]: nanomolar inhibition
